Experimental data as given in patent US9650389B2, “8-oxoprotoberberine derivative or pharmaceutically acceptable salt thereof, preparation method therefor and pharmaceutical composition for preventing or treating diseases associated with activity of NFAT5, containing same as active ingredient” (Korea Research Institute of Chemical Technology, priority 2013, dated 2017).

How the values were obtained:
NFATc = test: NFAT (NFATc) transcriptional activity, THP1-XBlue-MD2-CD14 cells, SEAP; format: cell-based; settings: LPS 1 μg/ml, 24 hours, FIG. 2B
Protocol: To evaluate the transcriptional activity of NFAT, THP1-XBlue-MD2-CD14 cells were cultured in 10% FBS-RPMI (supplemented with 200 μg/ml of Zeocin and 250 μg/ml of G418). First, the cells were distributed in a 96-well plate at the density of 2×10^4 cells/well, followed by culture. 1 μg/ml of LPS and the compound of the invention were added thereto, followed by culture for 24 hours. 20 μl of the supernatant was added with 180 μl of secreted embryonic alkaline phosphatase (SEAP) detection medium, followed by culture for 2 hours. Then, OD655 was measured.

iNOS = test: Inhibition of LPS-induced iNOS induction in Raw264.7 cells (Griess reagent); format: cell-based; settings: Mus musculus, Raw264.7, LPS 100 ng/ml, 24 hours, read-out: Inhibition rate of iNOS induction (%)
Protocol: To investigate whether or not the derivative of the present invention could inhibit iNOS inducement, Raw264.7 cells (mouse macrophages) were distributed in a 384-well plate at the density of 3×10^4 cells/well. The cells were treated with LPS at the concentration of 100 ng/ml, followed by culture at 37° C. for 24 hours. The concentration of […] increased in the medium was measured by using Griess reagent. The inhibition rate was calculated by mathematical formula based on the detected signals. The results are shown in Table 2. % inhibition=(mean value of sample−mean value of negative control)/(mean value of positive control −mean value of negative control)×100 [Mathematical Formula 1]

[1] = Metabolic stability in human liver microsomes; format: in vitro ADME; settings: human liver microsome fractions, 30 minutes
Protocol: (§1) Particularly, each compound was added to rat and human liver microsome fractions, followed by culture for 30 minutes. Each compound was administered via intravenous injection (iv) and oral-administration (po) to rat at the concentration of 5 mg/kg, followed by making pharmacokinetic profiles.

[2] = Cytotoxicity test (WST-8), NIH 3T3; format: cell-based; settings: mouse, NIH 3T3 embryonic fibroblast cells; NIN3T3, 24 hours
Protocol: (§2) To investigate the cytotoxicity of the derivative of the present invention, 5 kinds of cell lines (VERO: African green monkey kidney cell line, HFL-1: human embryonic lung cell line, L929: NCTC clone 929, mouse fibroblast cell line, NIH 3T3: mouse embryonic fibroblast cell line, and CHO-K1: Chinese hamster ovary cell line) were distributed in a 96-well plate at the density of 1×10^4 cells/well, which were treated with the compound of the present invention for 24 hours. The water-soluble tetrazolium salt WST-8 was added thereto. The orange colored formazan dye degraded by dehydrogenase in the live cells was read, followed by nonlinear regression to determine 50% growth inhibition concentration.

NFAT5 = target: T1, NFAT5 (Mus musculus, UniProt Q9WV30); test: NFAT5 reporter screening (GFP, HCS) in LPS-treated Raw264.7 cells; format: cell-based; settings: for Inhibition rate of NFAT5 transcription (%): Raw264.7 reporter, LPS 1 μg/ml, 48 hours
T1 construct: endogenous in cells; host or cells: RAW264.7
Protocol: To investigate whether or not the derivative of the present invention could inhibit the transcriptional activity of NFAT5, NFAT5 reporter screening was performed. A plasmid vector was constructed by eliminating CMV promoter sequence from the backbone and inserting NFAT5 binding site sequence ([…]) instead. Raw264.7 cells transfected with the vector were cultured in 10% FBS-PRMI (supplemented with 500 μg/ml G418). The cells were distributed in a 96-well plate at the density of 3×10^3 cells/well, followed by further culture for one more day. The cells were treated with LPS at the concentration of 1 μg/ml for 48 hours. Then, the cells were fixed and the expression level of GFP was measured by HCS fluorescence image (Thermo, ArrayScan^VTI).

[3] = Metabolic stability in rat liver microsomes; format: in vitro ADME; settings: rat liver microsome fractions, 30 minutes
Protocol: as §1

[4] = Cytotoxicity test (WST-8), HFL-1; format: cell-based; settings: human, HFL-1 embryonic lung cells; HFL-1, 24 hours
Protocol: as §2

[5] = Cytotoxicity test (WST-8), VERO; format: cell-based; settings: African green monkey, VERO kidney cells
Protocol: as §2

[6] = Cytotoxicity test (WST-8), L929; format: cell-based; settings: mouse, L929 fibroblast cells (NCTC clone 929); L929, 24 hours
Protocol: as §2

[7] = Cytotoxicity test (WST-8), CHO-K1; format: cell-based; settings: Chinese hamster, CHO-K1 ovary cells; CHO-K1, 24 hours
Protocol: as §2

T1 sequence (Q9WV30 whole entry): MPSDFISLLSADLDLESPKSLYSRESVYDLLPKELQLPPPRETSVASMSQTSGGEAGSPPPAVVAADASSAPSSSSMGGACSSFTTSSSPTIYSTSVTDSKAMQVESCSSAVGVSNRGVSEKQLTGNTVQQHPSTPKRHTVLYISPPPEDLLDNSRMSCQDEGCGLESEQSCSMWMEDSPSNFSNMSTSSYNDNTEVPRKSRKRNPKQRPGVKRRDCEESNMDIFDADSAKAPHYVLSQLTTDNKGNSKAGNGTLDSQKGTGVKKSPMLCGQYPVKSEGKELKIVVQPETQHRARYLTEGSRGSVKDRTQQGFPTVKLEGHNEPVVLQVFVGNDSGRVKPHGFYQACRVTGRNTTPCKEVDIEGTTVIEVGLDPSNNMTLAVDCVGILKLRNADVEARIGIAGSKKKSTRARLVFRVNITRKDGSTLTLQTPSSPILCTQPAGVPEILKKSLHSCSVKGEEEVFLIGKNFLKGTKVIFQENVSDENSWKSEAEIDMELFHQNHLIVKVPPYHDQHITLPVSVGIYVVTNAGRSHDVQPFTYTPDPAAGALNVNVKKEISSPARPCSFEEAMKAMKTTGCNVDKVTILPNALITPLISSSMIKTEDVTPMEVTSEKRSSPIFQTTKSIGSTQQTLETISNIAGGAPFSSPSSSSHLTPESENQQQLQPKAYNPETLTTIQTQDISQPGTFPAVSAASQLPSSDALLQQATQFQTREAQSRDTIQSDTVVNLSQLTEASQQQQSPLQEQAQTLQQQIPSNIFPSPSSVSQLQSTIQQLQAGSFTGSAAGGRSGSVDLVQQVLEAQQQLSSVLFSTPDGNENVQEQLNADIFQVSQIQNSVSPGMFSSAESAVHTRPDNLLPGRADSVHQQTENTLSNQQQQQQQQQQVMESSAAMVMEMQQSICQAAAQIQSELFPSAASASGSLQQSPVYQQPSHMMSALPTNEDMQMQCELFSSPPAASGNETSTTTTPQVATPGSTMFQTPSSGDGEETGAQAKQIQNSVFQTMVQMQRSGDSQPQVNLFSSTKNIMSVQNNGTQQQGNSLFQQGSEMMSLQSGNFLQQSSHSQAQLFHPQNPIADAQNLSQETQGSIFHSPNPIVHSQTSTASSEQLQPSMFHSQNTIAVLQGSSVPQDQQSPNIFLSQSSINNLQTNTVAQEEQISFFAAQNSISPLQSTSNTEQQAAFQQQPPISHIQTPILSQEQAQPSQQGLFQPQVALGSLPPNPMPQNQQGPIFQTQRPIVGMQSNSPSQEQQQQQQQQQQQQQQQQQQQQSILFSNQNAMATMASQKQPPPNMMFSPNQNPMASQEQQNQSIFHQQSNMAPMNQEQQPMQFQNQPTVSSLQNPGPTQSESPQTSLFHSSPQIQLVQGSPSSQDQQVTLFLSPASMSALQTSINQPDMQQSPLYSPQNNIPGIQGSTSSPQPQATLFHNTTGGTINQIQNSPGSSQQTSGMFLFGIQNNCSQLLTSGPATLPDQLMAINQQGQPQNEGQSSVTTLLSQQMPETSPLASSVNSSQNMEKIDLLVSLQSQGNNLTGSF

remaining compound, Human (%) [1] [%]	Inhibition rate of NFAT5 transcription (%) (NFAT5; 1 μM)	Inhibition rate of NFAT5 transcription (%) (NFAT5; 10 μM)	remaining compound, Rat (%) [3] [%]	Structure (SMILES)	inhibition of NFAT promoter / transcriptional activity (in words) (NFATc)	inhibition at 1 µM (iNOS; 1 μM) [%]	inhibition at 10 µM (iNOS; 10 μM) [%]	GI50 at 24 h [2] [µM]	inhibiting NFAT5 activity (in words) (NFAT5; Table 3 and FIG. 1)	GI50 at 24 h [4] [µM]	GI50 at 24 h [5] [µM]	GI50 at 24 h [6] [µM]	GI50 at 24 h [7] [µM]
63.7 ± 2.4	24.6	108.8	18.5 ± 5.2	COc1ccc2c(Cc3c(F)cccc3F)c3n(c(=O)c2c1OC)CCc1cc2c(cc1-3)OCO2 [Example 3, 13-(2,6-difluorobenzyl)-9,10-dimethoxy-5H-[1,3]dioxolo[4,5-g]isoquinolino[3,2-a]isoquinoline-8(6H)-one]	slightly	74.1	113	10.2	remarkably excellent in inhibiting NFAT5 activity	32.8	84.9	47.7	16.7
3.88 ± 0.24			0.82 ± 0.16	O=C1CC2(CCCC2)CC(=O)N1CCCCN1CCN(c2ncccn2)CC1 [buspirione, reference compound]									
